Results: ChEMBL document CHEMBL1201862, “PubChem BioAssay data set” (2004)
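Step 1: Grow cells in 96-well plates. Step 2: Expose to compound for 48 hours at 5 concentrations. Step 3: Interpolate endpoints linearly; if unreached, use highest concentration. At the GI50, growth is halved.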 Active and inactive are the calls of the source. Cut-off read from the data, not from the text of the source: active = GI50 up to about 1.1 µM and inactive = higher.

Columns and labels:
Experiment in all cases: inhibition of tumour cell growth, NCI panel, 48 h
DLD-1 = tested on: DLD-1
DMS-114 = tested on: DMS-114
HOP-18 = tested on: HOP-18
LXFL 529 = tested on: LXFL 529
M19-MEL = tested on: M19-MEL
RXF 631 = tested on: RXF 631
XF498 = tested on: XF498
DMS-273 = tested on: DMS-273
SNB-78 = tested on: SNB-78

Measured: GI50

COc1ccc(C(=O)CC2=Nc3nnc(CCCCCCCc4nnc5n4C(=O)C(CC(=O)c4ccc(OC)cc4)=N5)n3C2=O)cc1
inactive: DLD-1 > 100 µM | DMS-114 > 100 µM | HOP-18 > 100 µM | LXFL 529 > 100 µM | M19-MEL > 100 µM | RXF 631 > 100 µM | XF498 > 100 µM

CCOC(OC1=C(C#N)CCCC1)C(CC)[Se]c1ccccc1 (stereo not given)
inactive: DLD-1 16.1 µM | DMS-114 4.1 µM | DMS-273 12 µM | HOP-18 16.4 µM | LXFL 529 19.4 µM | M19-MEL 19.4 µM | RXF 631 11.3 µM | SNB-78 33.8 µM | XF498 20.4 µM

CCOC(=O)C(=O)CC1=Nc2ccccc2SC(c2cccc(C)c2)C1 (stereo not given)
inactive: DLD-1 17.8 µM | DMS-114 14.9 µM | DMS-273 19.6 µM | LXFL 529 18.1 µM | M19-MEL 18.8 µM | RXF 631 16 µM | SNB-78 16 µM

Cc1ccc(S(=O)(=O)c2c(N)c3nc4ccccc4n3c3nc4ccccc4nc23)cc1
inactive: DLD-1 > 100 µM | DMS-114 > 100 µM | DMS-273 > 100 µM | LXFL 529 > 100 µM | M19-MEL > 100 µM | RXF 631 > 100 µM

N#CC(C(=O)CCCC(=O)Nc1ccc(Cl)cc1Cl)c1ccccc1 (stereo not given)
inactive: DLD-1 > 100 µM | DMS-114 > 100 µM | DMS-273 > 100 µM | HOP-18 > 100 µM | M19-MEL > 100 µM | RXF 631 > 100 µM | SNB-78 > 100 µM

COc1cc(C2C(C(=O)Nc3ccc(Cl)c(Cl)c3)=C(C)NC(C)=C2C(=O)Nc2ccc(Cl)c(Cl)c2)ccc1O
inactive: DLD-1 10.6 µM | DMS-114 6.49 µM | LXFL 529 9.27 µM | M19-MEL 14.5 µM | SNB-78 14.9 µM | XF498 17.4 µM

C/C=C(/CCCCNCCCC)[Si](C)(C)C
inactive: DLD-1 14.6 µM | DMS-114 14.6 µM | DMS-273 18.4 µM | HOP-18 > 10 µM | LXFL 529 15.9 µM | M19-MEL 16.8 µM | RXF 631 15 µM | SNB-78 14.2 µM | XF498 11.3 µM

Cn1cc(NC(=O)c2cc(NC(=O)Nc3cc(C(=O)Nc4cc(C(=O)NCCC(=N)N)n(C)c4)n(C)c3)cn2C)cc1C(=O)NCCC(=N)N
inactive: DLD-1 > 100 µM | DMS-114 49.3 µM | DMS-273 13.6 µM | HOP-18 71.4 µM | LXFL 529 56.5 µM | M19-MEL 20.4 µM | RXF 631 23.1 µM | SNB-78 38.5 µM | XF498 21 µM

Nc1nc2c(N)cc(C(F)(F)F)cc2nc1-c1ccccc1
inactive: DLD-1 > 100 µM | DMS-114 86.5 µM | DMS-273 > 100 µM | HOP-18 > 100 µM | LXFL 529 64.9 µM | M19-MEL > 100 µM | SNB-78 > 100 µM | XF498 50.2 µM

CN1c2ccccc2N(C(=O)c2ccccc2)C(CC(=O)O)c2cccn21 (stereo not given)
inactive: DMS-114 > 100 µM | DMS-273 > 100 µM | HOP-18 > 100 µM | LXFL 529 > 100 µM | M19-MEL > 100 µM | RXF 631 > 100 µM | XF498 > 100 µM
